Measured values from US20120329879A1, “BETA-ADRENERGIC RECEPTOR AGONISTS AND USES THEREOF” (THE UNIVERSITY OF TENNESSEE RESEARCH FOUNDATION, priority 2010, published 2012).
“Also recorded” adds a separate entry of the source.

What was measured:
[1] = test system: insulin receptor beta (Tyr 1150/1151); assay: Western blot of phosphorylated to total insulin receptor beta in rat retina; format: in vivo; conditions: diabetic rats, 1 mM eye drops
Source text: (§1) The other eye from each animal was used for protein analyses for inflammatory markers and insulin receptor signaling. Western blotting was done as described (9). Antibodies used were total insulin receptor beta (1:500, Cellular Signaling, Danvers, Mass.), phosphorylated insulin receptor beta (Tyr 1150/1151, 1:500, Cellular Signaling, Danvers, Mass.), total Akt (1:500, Cellular Signaling, Danvers, Mass.), and phosphorylated Akt (Ser 473, 1:500, Cellular Signaling, Danvers, Mass.). For analyses of the data, mean densitometry values were obtained using the Kodak 2.0 software. The ratio of phosphorylated protein was compared to levels of total protein.

Akt (Ser 473) = assay: Western blot of phosphorylated Akt to total Akt in rat retina; format: in vivo; conditions: diabetic rats, daily 1 mM, retinal lysates
Source text: as §1

cleaved caspase 3 = assay: Cleaved caspase 3 ELISA of retinal lysates of diabetic rats; format: in vivo, rat; conditions: Compound 2 eye drops
Source text: To determine the TNF concentration (Pierce, Rockford Ill.) and levels of cleaved caspase 3 (Cellular Signaling, Danvers, Mass.), ELISA analyses were done according to manufacturers instructions, except that equal protein was loaded into the cleaved caspase 3 ELISA so the optical density numbers can be used.

Rat Müller cells (rMC-1) = assay: TNFalpha and cleaved caspase 3 ELISA in Müller cells cultured in high glucose; format: cell-based
Procedure: (§2) Human retinal endothelial cells (HREC) were purchased from Cell Systems (Kirkland, Wash.) and grown in either basal (5 mM glucose) or growth (25 mM glucose) media. Both media is supplemented with 10% FBS and antibiotics. The day prior to experiments, cells are serum-starved for 18-24 hours. Rat Müller cells (rMC-1) were grown in DMEM medium with 5 mM glucose or 25 mM glucose. Media was supplemented with 10% FBS and antibiotics. Cells were serum starved prior to all experiments for 18-24 hours.
(§3) Human retinal endothelial cells (HREC) and rat Muller cells (rMC-1) in both glucose conditions were treated with Compound 2 at doses of 10 nM, 50 nM, 100 nM, 1 μM, and 10 μM of Compound 2. Cells of each type were grown in medium containing L-glucose to control for changes in osmolarity. 10 μM isoproterenol was also used for each condition as a positive control. Müller cells were treated for 1 hour and 24 hours, while HREC were treated for 30 and 60 minutes.
(§4) Following treatment, cells were collected into lysis buffer containing protease and phosphatase inhibitors. ELISA analyses for TNFalpha, cleaved caspase 3, and PKA were done according to manufacturers instructions. Data is compared against non-treated cells and cells at the various doses. A Kruskal-Wallis test is done, with a Dunn's test for secondary analyses. […] The dose that decreases TNFalpha and caspase 3 levels also increases PKA activity.

[2] = test system: Human retinal endothelial cells (HREC); assay: TNFalpha and cleaved caspase 3 ELISA in retinal endothelial cells cultured in high glucose; format: cell-based; conditions: 50 nM
Procedure: as §2, §3, §4

left ventricle = assay: Heart left ventricle sections and collagen staining in type I diabetic rats; format: in vivo, rat; conditions: type I diabetic rats treated daily with 1 mM
Source text: Staining is for collagen intensity (FIG. 11B), which is increased in diabetes. Analyses on the rats were done for acute changes (8 weeks of diabetes, 45 rats) and chronic changes (8 months of diabetes, 45 rats). In addition to all measurements on the retina, tissue sections of the heart were taken at 8 weeks and 8 months to insure that there is no hypertrophy of the ventricles due to the drug. A Western blot for myosin light chain, a surrogate marker of cardiovascular hypertrophy was also performed. Each month, all rats receive 2 analyses of visual function, electroretinogram (ERG) and live retinal imaging using Optical Coherence […] (OCT). Retinal thickness and live retinal imaging were assessed using rodent OCT. This technology allows for non-invasive visualization of each layer of the retina for multiple testing of the same animal.

[3] = Plasma levels of Compound 2 after intravenous or topical administration to rats (LC/MS/MS); format: in vivo; conditions: rat
Procedure: B/PK was characterized following intravenous administration to rats. Following drug administration, blood samples (2-300 μL) were withdrawn from the jugular vein catheter at regular intervals after dosing (5, 15, 30, 45 minutes and 1, 2, 4, 8, 16, and 24 hours) into K3-EDTA anti-coagulated sampling tubes. Plasma was obtained by centrifugation and stored at −80° C. until analysis. The heart, lung and spleen were harvested in order to determine the tissue distribution of Compound 2. Cumulative urinary samples were collected over 24 hours post-dose and stored at −80° C. until analysis. B/PK was characterized following topical administration. Following drug administration to rats, eyes were enucleated, irrigated with saline, and vitreous humor aspirated from the inner region of the vitreous chamber using an 18-gauge needle. Blood samples were obtained simultaneously in order to determine the extent of systemic exposure following topical administration. Vitreous humor and blood samples were obtained at regular intervals after dosing. Time points were determined based upon concentration time profiles obtained following intravenous administration of Compound 2. For data analyses B/PK parameters were derived from the obtained plasma, vitreous humor, urine and feces concentration data by standard non-compartmental analysis. Terminal half-life was determined as the ratio of ln 2 divided by λz, the negative of the slope of the linear regression of the natural log concentration vs. time profile during the terminal phase. Systemic and ocular exposure was determined as plasma or ocular area under the concentration-time curve (AUC) using the trapezoidal rule. Compound 2 concentration determination and metabolite profiling is conducted using a validated LC/MS/MS assay based on the methodology described (14-15). The LC-MS/MS system comprises a Shimadzu HPLC system (Kyoto, Japan), API-4000 Q Trap tandem mass spectrometer (Foster City, Calif., USA) equipped with a turbo ion-spray and a HTC-PAL autosampler (Leap Technologies, Carrboro, N.C., USA).

[4] = test system: retinal vasculature of hypoxic mice; assay: Oxygen-induced retinopathy model of proliferative diabetic retinopathy; format: in vivo; conditions: 1 mM eye drops once daily on days 13, 14, 15, sacrificed day 17
Procedure: A model of oxygen-induced retinopathy was used to determine the effects in vivo of Compound 2 on mice. Mice were placed into a chamber with 100% oxygen at day 7 of life. On day 12, they were removed from the chamber into normal air. The retina interprets this as hypoxia and starts angiogenesis. Mice were treated with 1 mM Compound 2 in eye drops once daily on days 13, 14, 15. Animals were sacrificed on day 17. FIGS. 19A-19 Retinal flat mounts were prepared.

[5] = Müller cells in high glucose, 50 nM

Q: For COc1cc(CCNC[C@H](O)c2ccc(O)c(O)c2)cc(OC)c1OC.Cl (single isomer, unassigned) [Compound 2, 4-[1-hydroxy-2-(1-ethylamino-3-,4-,5-trimethoxyphenyl)ethyl]benzene-1,2-diol hydrochloride], which “insulin receptor beta tyrosine phosphorylation, 2 months” value ([1]; 2 months of diabetes) is on record?
A: Its value is “maintained insulin receptor beta tyrosine phosphorylation at levels similar to control animals”.

Q: What about the “insulin receptor beta tyrosine phosphorylation, 8 months” value ([1]; 8 months of diabetes) of the same molecule?
A: Its value is “also maintained”.

Q: And the “ratio of phosphorylated Akt to total Akt” value (Akt (Ser 473))?
A: Its value is “maintained the ratio of phosphorylated Akt at levels similar to control values”.

Q: And the “cleaved caspase 3 levels in retinal lysates” value (cleaved caspase 3)?
A: Its value is “reduced following treatment”.

Q: And the “reduction of TNFalpha levels compared to not-treated cells” value (Rat Müller cells (rMC-1); [5])?
A: Its value is 19%.

Q: What about the “reduction of caspase 3 compared to not-treated cells” value (Rat Müller cells (rMC-1); [5]) of the same molecule?
A: Its value is 55%.

Q: And the “TNFalpha levels, in words” value (Rat Müller cells (rMC-1); Müller cells in high glucose, 50 nM, vs non-treated)?
A: Its value is “significantly reduced”.

Q: And the “cleaved caspase 3 levels, in words” value (Rat Müller cells (rMC-1); Müller cells in high glucose, 50 nM, vs non-treated, hydrochloride)?
A: Its value is “significantly decreased caspase 3 levels in Müller cells at the 24-hour time point; also recorded: significantly reduced levels of cleaved caspase 3”.

Q: And the “dose for blockade of apoptosis and TNFalpha activity compared with isoproterenol” value (Rat Müller cells (rMC-1); Müller cells, 50 nM Compound 2 vs. 10 μM isoproterenol)?
A: The value was “significantly lower dose”.

Q: What about the “reduction of TNFalpha levels versus not-treated controls” value ([2]; REC in 25 mM glucose) of the same molecule?
A: The value was 23%.

Q: And the “reduction of caspase 3 levels versus not-treated controls” value ([2]; REC in 25 mM glucose)?
A: The value was 54%.

Q: What about the “TNFalpha levels, in words” value ([2]; REC in high glucose, vs non-treated) of the same molecule?
A: Its value is “significantly reduced”.

Q: And the “cleaved caspase 3 levels, in words” value ([2]; REC in high glucose, vs non-treated, hydrochloride)?
A: Its value is “significantly decreased caspase 3 levels; also recorded: significantly reduced levels of cleaved caspase 3”.

Q: And the “left ventricle compared to untreated diabetic rats” value (left ventricle)?
A: The value was “no difference in the left ventricle”.

Q: What about the concentration at 45 min ([3]; Lewis, plasma, over 45 minutes, dose and route not stated) of the same molecule?
A: The concentration at 45 min was roughly 6 ng/mL.

Q: And the concentration at 1 h ([3]; plasma, intravenous or topical, 10 mg/kg, limit of detection, read-out: plasma level after 1 hour)?
A: Its concentration at 1 h is less than 2.5 ng/mL.

Q: What about the “time of clearance from plasma” value ([3]; intravenous, 1 mg/kg) of the same molecule?
A: Its value is less than 1 h.

Q: And the plasma concentration ([3]; intravenous, 10 mg/kg)?
A: The plasma concentration was roughly 1000 ng/mL.

Q: And the “time of clearing from plasma” value ([3]; intravenous, 10 mg/kg)?
A: The value was no more than 30 min.

Q: And the “plasma concentration at the 2 time points with detection” value ([3]; topical, 10 mg/kg)?
A: Its value is roughly 80 ng/mL.

Q: And the “detection in plasma after topical delivery” value ([3]; topical, therapeutic dose 1 mM or 1 mg/kg, hydrochloride)?
A: Its value is “did not result in detectable Compound 2 in plasma; also recorded: below the limits of detection; also recorded: not detected”.

Q: What about the “Plasma concentration at start of decline” value ([3]; dose and route not stated) of the same molecule?
A: Its value is “about 100 ng/ml”.

Q: What about the “development of retinal vasculature (retinal flat mounts)” value [4] of the same molecule?
A: The value was “the retina is much more developed and appears normal”.
